In publication PMC11481871, “Discovery of GuaB inhibitors with efficacy against Acinetobacter baumannii infection” (mBio, 2024):

Experiment: In vitro metabolism in mouse hepatocytes
Format: in vitro ADME
Description: The incubation of G2 and G1 with cryopreserved mouse hepatocytes was conducted according to the standard in-house protocol. Cryopreserved hepatocytes were thawed using pre-warmed InVitroGRO HT thawing medium in 50 mL centrifuge tubes. The tubes were centrifuged for 3 min at 50 × g, and the supernatants were discarded. Cells were resuspended with 50 mL of pre-warmed Dulbecco’s modified eagle medium (DMEM) by gently inverting the tube several times. The tubes were centrifuged for 3 min at 50 × g, and the supernatants were discarded. Cells were brought up in 5.0 mL of pre-warmed DMEM incubation medium. The total cell counts and the number of viable cells were determined by the trypan blue exclusion method. Incubations were carried out in 20 mL scintillation vials containing 1.0 mL of hepatocyte suspension (approximately 1.3 × 10^6 cells/mL). The mouse hepatocytes were pre-incubated with or without 1 mM ABT or 4-MP for 15 min. Vials were spiked with G2 or G1 as a DMSO stock solution to a final concentration of 5 µM G2 or G1 and a final DMSO concentration of 0.1%. The scintillation vials were placed on an orbital shaker rotating at 16 rpm in a humidified incubator at 37°C, 5% CO2. The reaction was quenched with 4 mL of acetonitrile at 0 or 3 h. The hepatocyte samples were protein precipitated with 4 volumes of acetonitrile and centrifuged at 2,000 × g for 5 min. The resulting supernatant was reduced to a dry residue and reconstituted with 350 µL water:acetonitrile (2/1; vol/vol). All samples were analyzed by LC-MS/MS system.
Liquid chromatography (LC) equipment consisted of a CBM 20A Communications Module, NexeraX2 LC 30AD pumps, NexeraX2 SIL 30AC autosampler, CTO Prominence Column Oven from Shimadzu (Columbia, MD), and a 1290 Infinity DAD ultraviolet (UV) detector with a 60 mm flow cell from Agilent Technologies (Waldbronn, Germany). The LC column was an EVO C18 (1.9 µm, 2.1 × 100 mm) from Phenomenex. Mobile phase A was water with 0.1% formic acid and mobile phase B was acetonitrile with 0.1% formic acid. The flow rate was 400 µL/min and the injection volume was 10 µL. Column temperature was 40°C. Mass spectrometry was performed using a 5600 QTRAP mass spectrometer equipped with a TurboIonSpray from Applied Biosystems (Redwood City, CA). Various tandem mass spectrometry (MS/MS) functionalities were used for analysis, which included data-dependent time-of-flight (TOF) scans in a positive ion electrospray mode. The extracted ion chromatography traces were obtained following analysis of mouse hepatocyte incubations and were used to quantify the metabolites.

SMILES: C[C@H](Nc1ccc2ncc3c(c2c1)CCOC3)C(=O)Nc1ccc(Cl)nc1 [G1, (2S)-N-(6-chloro-3-pyridyl)-2-(2,4-dihydro-1H-pyrano[3,4-c]quinolin-9 ylamino)propanamide]
- clearance in mouse hepatocytes: high clearance
- metabolism inhibited by ABT (1 mM ABT): 39%

SMILES: C[C@H](Nc1ccc2ncc(CO)cc2c1)C(=O)Nc1ccc(Cl)c(N(C)C)c1 [G2, (2S)-N-[4-chloro-3-(dimethylamino)phenyl]-2-[[3-(hydroxymethyl)-6-quinolyl]amino]propanamide]
- clearance in mouse hepatocytes: high clearance
- metabolism inhibited by ABT and 4-MP (1-aminobenzotriazole (ABT) and 4-methylpyrazole (4-MP)): 38%
